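Following 48 hours of exposure in 96-well plates, responses at five concentrations were used to interpolate endpoints linearly. GI50 is the concentration that inhibits growth by half. TGI: total growth inhibition.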
Key:
Assay in all cases: NCI-60 cell line screen, 48 h
[1] = tested on: SK-MEL-5 melanoma
[2] = tested on: MALME-3M melanoma
[3] = tested on: HOP-92 NSCLC
[4] = tested on: EKVX NSCLC
[5] = tested on: DU-145 prostate
[6] = tested on: MCF7 breast
[7] = tested on: UO-31 renal
[8] = tested on: SK-MEL-28 melanoma
[9] = tested on: HCC-2998 colon
[10] = tested on: SF-268 CNS
[11] = tested on: K-562 leukemia
[12] = tested on: MDA-MB-231 breast
[13] = tested on: SF-295 CNS
[14] = tested on: MOLT-4 leukemia
[15] = tested on: SNB-75 CNS
[16] = tested on: SK-MEL-2 melanoma
[17] = tested on: ACHN renal
[18] = tested on: SR leukemia
[19] = tested on: OVCAR-3 ovarian
[20] = tested on: SN12C renal
[21] = tested on: BT-549 breast
[22] = tested on: IGROV1 ovarian
[23] = tested on: A498 renal
[24] = tested on: NCI-H23 lung
[25] = tested on: UACC-62 melanoma
[26] = tested on: COLO 205 colon
[27] = tested on: 786-0 renal
[28] = tested on: OVCAR-8 ovarian
[29] = tested on: CAKI-1 renal
[30] = tested on: MDA-MB-435
[31] = tested on: HCT-116 colon
[32] = tested on: OVCAR-5 ovarian
[33] = tested on: CCRF-CEM leukemia
[34] = tested on: NCI-H226 lung
[35] = tested on: HL-60(TB) leukemia
[36] = tested on: SF-539 CNS
[37] = tested on: HCT-15 colon
[38] = tested on: SNB-19 CNS
[39] = tested on: HS 578T breast
[40] = tested on: RPMI-8226 leukemia
[41] = tested on: SK-OV-3 ovarian
[42] = tested on: NCI/ADR-RES ovarian
[43] = tested on: LOX IMVI melanoma
[44] = tested on: M14 melanoma
[45] = tested on: TK-10 renal
[46] = tested on: MDA-MB-468 breast

## Cn1cc(-c2cc3nc(-c4c[nH]c5ccccc45)cc(N)n3n2)c2ccccc21
[1]
  GI50: 1.95 µM
  TGI: 4.1 µM
[2]
  GI50: 1.87 µM
  TGI: 3.37 µM
[3]
  GI50: 1.94 µM
  TGI: 3.75 µM
[4]
  GI50: 1.65 µM
  TGI: 3.16 µM
[5]
  GI50: 2.04 µM
  TGI: 4.73 µM
[6]
  GI50: 1.68 µM
  TGI: 3.39 µM
[7]
  GI50: 1.54 µM
  TGI: 2.93 µM
[8]
  GI50: 1.74 µM
  TGI: 3.18 µM
[9]
  GI50: 1.65 µM
  TGI: 3.06 µM
[10]
  GI50: 2.4 µM
  TGI: 7.17 µM
[11]
  GI50: 1.74 µM
  TGI: 3.54 µM
[12]
  GI50: 1.94 µM
  TGI: 3.35 µM
[13]
  GI50: 1.64 µM
  TGI: 3.19 µM
[14]
  GI50: 1.77 µM
  TGI: 3.92 µM
[15]
  GI50: 1.74 µM
  TGI: 3.93 µM
[16]
  GI50: 1.87 µM
  TGI: 3.73 µM
[17]
  GI50: 1.76 µM
  TGI: 3.22 µM
[18]
  GI50: 1.95 µM
  TGI: 5.9 µM
[19]
  GI50: 1.74 µM
  TGI: 3.4 µM
[20]
  GI50: 1.87 µM
  TGI: 3.49 µM
[21]
  GI50: 12.4 µM
  TGI: 54.4 µM
[22]
  GI50: 1.77 µM
  TGI: 3.26 µM
[23]
  GI50: 19.7 µM
  TGI: 44.6 µM
[24]
  GI50: 1.75 µM
  TGI: 3.32 µM
[25]
  GI50: 1.64 µM
  TGI: 3.06 µM
[26]
  GI50: 1.75 µM
  TGI: 3.29 µM
[27]
  GI50: 1.51 µM
  TGI: 2.94 µM
[28]
  GI50: 1.9 µM
  TGI: 3.97 µM
[29]
  GI50: 1.68 µM
  TGI: 3.31 µM
[30]
  GI50: 1.78 µM
  TGI: 3.46 µM
[31]
  GI50: 1.8 µM
  TGI: 3.3 µM
[32]
  GI50: 1.82 µM
  TGI: 3.3 µM
[33]
  GI50: 1.95 µM
  TGI: 4.2 µM
[34]
  GI50: 2.2 µM
  TGI: 4.98 µM
[35]
  GI50: 1.5 µM
  TGI: 3.22 µM
[36]
  GI50: 1.75 µM
  TGI: 3.13 µM
[37]
  GI50: 1.6 µM
  TGI: 3.01 µM
[38]
  GI50: 3.43 µM
  TGI: 17.3 µM
[39]
  GI50: 2.55 µM
  TGI: 6.28 µM
[40]
  GI50: 2.11 µM
  TGI: 5.07 µM
[41]
  GI50: 10.5 µM
  TGI: 46.8 µM
[42]
  GI50: 1.78 µM
  TGI: 3.41 µM
[43]
  GI50: 1.86 µM
  TGI: 3.35 µM
[44]
  GI50: 1.75 µM
  TGI: 3.34 µM
[45]
  GI50: 1.77 µM
  TGI: 4.65 µM
[46]
  GI50: 1.55 µM
  TGI: 2.93 µM
